Data published in US20130029955A1, “INHIBITORS OF GALECTIN-3 AND METHODS OF USE THEREOF” (priority 2011, published 2013).

System: TGR(mREN2)27 rats
Assay: Rat model of heart failure treated with a galectin-3 inhibitor
Type: in vivo
Protocol: In this study, N-acetyllactosamine (Gal3i) or an angiotensin-converting enzyme inhibitor (ACEi) was administered to TGR(mREN2)27 rats. Untreated TGR(mREN2)27 (REN2) and Sprague-Dawley (SD) rats were used as controls. TGR(mREN2)27 rats overexpress Ren-2, which leads to development of severe hypertension and ultimately heart failure. Fractional shortening, left ventricular end diastolic pressure (LVEDP), fibrosis, and survival were evaluated as a function of time.

Compound: CC(=O)N[C@H]1C(O)O[C@H](CO)[C@@H](O[C@@H]2O[C@H](CO)[C@H](O)[C@H](O)[C@H]2O)[C@@H]1O (some centres unmarked) [Gal3i, N-acetyllactosamine]
- fractional shortening (FIG. 3A, TGR(mREN2)27 rats, relative to placebo-treated REN2 control): prevented a significant loss
- rate of decrease in fractional shortening compared with SD control group (FIG. 3B, SD control group did not develop heart failure): comparable to that of the SD control group
- reduction in fractional shortening from beginning of the study to sacrifice (FIG. 3B, relative to placebo-treated REN2 control): significantly slowed the reduction in fractional shortening
- left ventricular end diastolic pressure (LVEDP) (FIG. 3C, relative to placebo-treated REN2 control): significantly improved the LVEDP
- Tau compared with SD control group (FIG. 3D): comparable to that of the SD control group
- left ventricle pressure decay (Tau) (FIG. 3D, relative to placebo-treated REN2 control): significantly improved the Tau
- cardiac fibrosis (FIG. 4A/4B, cardiac tissue sections, compared to placebo-treated REN2 control group): significantly inhibited fibrosis
- survival (rats remaining, Kaplan-Meier) (FIG. 5, after 40 days, placebo-treated REN2 rats about 65%): approximately 80%
